Reference: PubChem BioAssay AID192 (DTP/NCI, 2004)
Toxic doses and inconclusive results are not listed. The calls were made as follows: active = survival T/C of 150% or more; inactive = T/C below 125% in these data.

System: BDF1 mice, B16 melanoma ip, median survival T/C
Assay: NCI In Vivo Anticancer Drug Screen. Data for tumor model B16 Melanoma (intraperitoneal) in B6D2F1 (BDF1) mice
Conditions: endpoint: median survival time, higher = longer survival
Procedure: The antitumor activity of compounds was measured in mice bearing transplantable tumors. Survival or tumor size were measured and the results are expressed as the measurement made in the treated group (T) divided by the measurement made in the vehicle treated control group (C). The tumor model used in this assay is B16 Melanoma (intraperitoneal) in B6D2F1 (BDF1) mice

[1] = dose: 25.0 mg/kg/injection, schedule: Q01DX009 (ip), vehicle: saline with Tween-80
[2] = dose: 50.0 mg/kg/injection, schedule: Q01DX009 (ip), vehicle: saline with Tween-80
[3] = dose: 100.0 mg/kg/injection, schedule: Q01DX009 (ip), vehicle: saline with Tween-80
[4] = dose: 200.0 mg/kg/injection, schedule: Q01DX009 (ip), vehicle: saline with Tween-80
[5] = dose: 100.0 mg/kg/injection, schedule: Q01DX009 (ip), vehicle: Klucel (hydroxypropylcellulose) (HPC)
[6] = dose: 200.0 mg/kg/injection, schedule: Q01DX009 (ip), vehicle: Klucel (hydroxypropylcellulose) (HPC)
[7] = dose: 400.0 mg/kg/injection, schedule: Q01DX009 (ip), vehicle: Klucel (hydroxypropylcellulose) (HPC)
[8] = dose: 12.5 mg/kg/injection, schedule: Q01DX009 (ip), vehicle: saline with Tween-80
[9] = dose: 25.0 mg/kg/injection, schedule: Q01DX009 (ip), vehicle: Klucel (hydroxypropylcellulose) (HPC)
[10] = dose: 50.0 mg/kg/injection, schedule: Q01DX009 (ip), vehicle: Klucel (hydroxypropylcellulose) (HPC)

Measured: T/C

c1cn[nH]c1
inactive: [1] 97 % of control | [2] 96 % of control | [3] 91 % of control

C1=CC2CC3(OCCO3)C2C1 (stereo not drawn)
inactive: [2] 88 % of control | [3] 106 % of control | [4] 93 % of control

Cc1cc(=O)[nH]c2ccc(-c3ccc4[nH]c(=O)cc(C)c4c3)cc12
inactive: [5] 96 % of control | [6] 93 % of control

O=C1C=CC(=O)C2=C1CCCC2
inactive: dose: 2.9 mg/kg/injection, schedule: Q01DX009 (ip), vehicle: saline with Tween-80 87 % of control | dose: 4.5 mg/kg/injection, schedule: Q01DX009 (ip), vehicle: saline with Tween-80 87 % of control

O=C(Nc1ccccc1C(F)(F)F)Nc1cccc2ccccc12
inactive: [5] 91 % of control | [6] 94 % of control

Nc1cc2nc3ccccc3sc-2cc1=O
inactive: [2] 93 % of control | [3] 98 % of control | [4] 94 % of control

CCc1cc(Cc2cc(CC)cc(C(C)(C)C)c2O)c(O)c(C(C)(C)C)c1
inactive: [5] 88 % of control | [6] 88 % of control | [7] 89 % of control

COC(=O)C(N)Cc1ccc(O)c(O)c1 (stereo not drawn)
inactive: dose: 25.0 mg/kg/injection, schedule: Q08HX018 (ip), vehicle: water 122 % of control | dose: 50.0 mg/kg/injection, schedule: Q08HX018 (ip), vehicle: water 111 % of control | dose: 50.0 mg/kg/injection, schedule: Q08HX030 (ip), vehicle: saline 99 % of control | dose: 100.0 mg/kg/injection, schedule: Q01DX012 (ip), vehicle: saline 102 % of control | dose: 100.0 mg/kg/injection, schedule: Q01DX014 (ip), vehicle: saline 102 % of control | dose: 100.0 mg/kg/injection, schedule: Q08HX018 (ip), vehicle: water 110 % of control | dose: 100.0 mg/kg/injection, schedule: Q08HX030 (ip), vehicle: saline 104 % of control | dose: 200.0 mg/kg/injection, schedule: Q01DX012 (ip), vehicle: saline 104 % of control | dose: 200.0 mg/kg/injection, schedule: Q01DX014 (ip), vehicle: saline 104 % of control | dose: 200.0 mg/kg/injection, schedule: Q08HX018 (ip), vehicle: water 113 % of control | dose: 200.0 mg/kg/injection, schedule: Q08HX030 (ip), vehicle: saline 111 % of control | dose: 400.0 mg/kg/injection, schedule: Q01DX012 (ip), vehicle: saline 120 % of control | dose: 400.0 mg/kg/injection, schedule: Q01DX014 (ip), vehicle: saline 118 % of control | dose: 400.0 mg/kg/injection, schedule: Q08HX030 (ip), vehicle: saline 107 % of control

C1CC[N-]CC1.C1CC[N-]CC1.C1CC[N-]CC1.[Cl][Rh]([Cl])[Cl]
inactive: dose: 2.0 mg/kg/injection, schedule: Q01DX009 (ip), vehicle: saline 93 % of control | dose: 4.0 mg/kg/injection, schedule: Q01DX009 (ip), vehicle: saline 99 % of control | dose: 6.25 mg/kg/injection, schedule: Q01DX009 (ip), vehicle: saline 109 % of control | dose: 6.25 mg/kg/injection, schedule: Q01DX009 (ip), vehicle: suspension in saline 103 % of control | dose: 8.0 mg/kg/injection, schedule: Q01DX009 (ip), vehicle: saline 103 % of control | [8] 98 % of control | dose: 12.5 mg/kg/injection, schedule: Q01DX009 (ip), vehicle: suspension in saline 103 % of control | dose: 16.0 mg/kg/injection, schedule: Q01DX009 (ip), vehicle: saline 104 % of control | [1] 87 % of control | dose: 25.0 mg/kg/injection, schedule: Q01DX009 (ip), vehicle: suspension in saline 110 % of control | dose: 32.0 mg/kg/injection, schedule: Q01DX009 (ip), vehicle: saline 121 % of control | [2] 93 % of control | dose: 50.0 mg/kg/injection, schedule: Q01DX009 (ip), vehicle: suspension in saline 110 % of control | [3] 94 % of control | dose: 100.0 mg/kg/injection, schedule: Q01DX009 (ip), vehicle: suspension in saline 115 % of control | [4] 100 % of control | dose: 200.0 mg/kg/injection, schedule: Q01DX009 (ip), vehicle: suspension in saline 112 % of control

Cc1cccc(C2NC(=O)c3ccccc3N2)c1 (stereo not drawn)
inactive: [5] 109 % of control | [6] 112 % of control | [7] 115 % of control

CNC(=S)N/N=C/CCC/C=N/NC(=S)NC
inactive: dose: 15.9 mg/kg/injection, schedule: Q01DX009 (ip), vehicle: saline with Tween-80 88 % of control | dose: 31.8 mg/kg/injection, schedule: Q01DX009 (ip), vehicle: saline with Tween-80 92 % of control

CCOC(=O)c1ccc(NC(=O)Nc2nccs2)cc1
inactive: dose: 6.25 mg/kg/injection, schedule: Q01DX009 (ip), vehicle: Klucel (hydroxypropylcellulose) (HPC) 102 % of control | dose: 6.25 mg/kg/injection, schedule: Q01DX009 (oral), vehicle: Klucel (hydroxypropylcellulose) (HPC) 113 % of control | dose: 12.5 mg/kg/injection, schedule: Q01DX009 (ip), vehicle: Klucel (hydroxypropylcellulose) (HPC) 99 % of control | [8] 110 % of control | dose: 12.5 mg/kg/injection, schedule: Q01DX009 (oral), vehicle: Klucel (hydroxypropylcellulose) (HPC) 108 % of control | dose: 12.5 mg/kg/injection, schedule: Q01DX009 (oral), vehicle: saline with Tween-80 107 % of control | [9] 96 % of control | dose: 25.0 mg/kg/injection, schedule: Q01DX009 (oral), vehicle: Klucel (hydroxypropylcellulose) (HPC) 110 % of control | dose: 25.0 mg/kg/injection, schedule: Q01DX009 (oral), vehicle: saline with Tween-80 109 % of control | [10] 96 % of control | dose: 50.0 mg/kg/injection, schedule: Q01DX009 (oral), vehicle: Klucel (hydroxypropylcellulose) (HPC) 119 % of control | dose: 50.0 mg/kg/injection, schedule: Q01DX009 (oral), vehicle: saline with Tween-80 106 % of control | [5] 114 % of control | dose: 100.0 mg/kg/injection, schedule: Q01DX009 (oral), vehicle: Klucel (hydroxypropylcellulose) (HPC) 102 % of control | dose: 100.0 mg/kg/injection, schedule: Q01DX009 (oral), vehicle: saline with Tween-80 119 % of control | [6] 113 % of control | dose: 200.0 mg/kg/injection, schedule: Q01DX009 (oral), vehicle: Klucel (hydroxypropylcellulose) (HPC) 99 % of control | dose: 200.0 mg/kg/injection, schedule: Q01DX009 (oral), vehicle: saline with Tween-80 112 % of control | dose: 400.0 mg/kg/injection, schedule: Q01DX009 (oral), vehicle: saline with Tween-80 110 % of control

COc1cc2c(cc1OC)C(CCc1ccc(Cl)cc1)N(C)CC2 (stereo not drawn)
inactive: [9] 88 % of control | [10] 93 % of control | [5] 98 % of control | [6] 93 % of control

O=S(=O)(CCBr)CCBr
inactive: [1] 93 % of control | [2] 93 % of control | [3] 98 % of control

CC1=Nc2ccc([N+](=O)[O-])cc2N=C(C)C1
inactive: dose: 37.5 mg/kg/injection, schedule: Q01DX009 (ip), vehicle: saline 97 % of control | dose: 75.0 mg/kg/injection, schedule: Q01DX009 (ip), vehicle: saline 101 % of control | dose: 150.0 mg/kg/injection, schedule: Q01DX009 (ip), vehicle: saline 89 % of control

N#CC(Cc1ccccc1Cl)(Cc1ccccc1Cl)c1ccccc1
inactive: [5] 100 % of control | [6] 105 % of control | [7] 105 % of control

O=[N+]([O-])c1cc(Br)cc2c1nc(Cl)c1ccccc12
inactive: [2] 94 % of control | [3] 88 % of control
